Source: ChEMBL document CHEMBL1201862, “PubChem BioAssay data set” (2004)
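In this assay, cells in 96-well plates receive the compound at five concentrations for 48 hours. Endpoints are linearly interpolated between the surrounding concentrations. GI50: concentration for 50% inhibition of growth.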 Active and inactive are the calls of the source. Cut-off read from the data, not from the text of the source: active = GI50 up to about 1.1 µM and inactive = higher.

Columns and labels:
Test in all cases: NCI-60 cell line screen, 48 h
SN12C = tested on: SN12C
M14 = tested on: M14
OVCAR-8 = tested on: OVCAR-8
BT-549 = tested on: BT-549
LOX IMVI = tested on: LOX IMVI
NCI-H460 = tested on: NCI-H460
UACC-257 = tested on: UACC-257
SK-MEL-28 = tested on: SK-MEL-28
A549 = tested on: A549
PC-3 = tested on: PC-3
MDA-N = tested on: MDA-N
A498 = tested on: A498
ACHN = tested on: ACHN
SNB-19 = tested on: SNB-19
RPMI-8226 = tested on: RPMI-8226
MOLT-4 = tested on: MOLT-4
U-251 = tested on: U-251
OVCAR-4 = tested on: OVCAR-4
SF-268 = tested on: SF-268
COLO 205 = tested on: COLO 205

Measured: GI50

Cc1cnc2cc(Cl)ccc2c1SCC(=O)O
inactive: SN12C > 100 µM | M14 > 100 µM | OVCAR-8 > 100 µM | BT-549 > 100 µM | LOX IMVI > 100 µM | NCI-H460 > 100 µM | UACC-257 > 100 µM | SK-MEL-28 > 100 µM | A549 > 100 µM | PC-3 > 100 µM | MDA-N > 100 µM | A498 > 100 µM | ACHN > 100 µM | SNB-19 > 100 µM | RPMI-8226 > 100 µM | MOLT-4 > 100 µM | U-251 > 100 µM | OVCAR-4 > 100 µM | SF-268 > 100 µM

CC(O)/C=C/C1OC(=O)CC1Nc1ccc(C=O)cc1 (stereo unspecified)
inactive: SN12C > 100 µM | M14 22.3 µM | OVCAR-8 > 100 µM | BT-549 > 100 µM | COLO 205 42.9 µM | LOX IMVI > 100 µM | NCI-H460 11.2 µM | UACC-257 48.2 µM | SK-MEL-28 > 100 µM | A549 > 100 µM | PC-3 > 100 µM | MDA-N > 100 µM | A498 > 100 µM | ACHN > 100 µM | SNB-19 > 100 µM | RPMI-8226 24.2 µM | MOLT-4 10.8 µM | U-251 77.6 µM | OVCAR-4 > 100 µM | SF-268 > 100 µM

O=C1c2nc3n(c2C(=O)c2c1nc1n2CCC1)CCC3
inactive: SN12C 3.64 µM | M14 1.76 µM | OVCAR-8 5.46 µM | BT-549 > 10 µM | COLO 205 5.89 µM | LOX IMVI 3.1 µM | NCI-H460 1.82 µM | UACC-257 2.2 µM | SK-MEL-28 13.3 µM | A549 4.39 µM | PC-3 > 10 µM | MDA-N 1.77 µM | A498 16 µM | ACHN 10.9 µM | SNB-19 14.7 µM | RPMI-8226 15.1 µM | MOLT-4 5.46 µM | U-251 6.79 µM | OVCAR-4 4.71 µM | SF-268 8.28 µM

Clc1nc(Nc2nc3ccccc3[nH]2)nc(Cl)c1Cc1ccccc1
inactive: SN12C 59.4 µM | M14 > 100 µM | OVCAR-8 > 100 µM | BT-549 > 100 µM | COLO 205 > 100 µM | NCI-H460 89.1 µM | UACC-257 > 100 µM | SK-MEL-28 > 100 µM | A549 > 100 µM | PC-3 > 100 µM | MDA-N 66.4 µM | A498 > 100 µM | ACHN 85.7 µM | SNB-19 93.1 µM | RPMI-8226 > 100 µM | MOLT-4 > 100 µM | U-251 29.6 µM | OVCAR-4 36.1 µM | SF-268 49.4 µM

O=[N+]([O-])/C(C(Cl)=C(Cl)Cl)=C(\Nc1cccc2cccnc12)Sc1ccccc1
inactive: SN12C 22.2 µM | M14 39.3 µM | BT-549 21.9 µM | COLO 205 17.1 µM | NCI-H460 34.4 µM | UACC-257 19.8 µM | SK-MEL-28 20.4 µM | A549 29.9 µM | PC-3 18.8 µM | MDA-N 43 µM | A498 20 µM | ACHN 22.8 µM | SNB-19 31.6 µM | RPMI-8226 31.5 µM | MOLT-4 12.9 µM | U-251 16.2 µM | OVCAR-4 23.1 µM | SF-268 17.9 µM

C/C(=C/c1ccccc1)CN(C(=O)/C=C\Sc1ccccc1)C(C)(C)C
inactive: SN12C > 100 µM | M14 > 100 µM | OVCAR-8 > 83.8 µM | BT-549 > 43.7 µM | COLO 205 > 100 µM | LOX IMVI > 66.4 µM | NCI-H460 > 100 µM | UACC-257 48.3 µM | SK-MEL-28 > 100 µM | A549 60.1 µM | PC-3 > 68.7 µM | MDA-N > 100 µM | A498 > 100 µM | ACHN > 100 µM | SNB-19 > 100 µM | RPMI-8226 21.2 µM | MOLT-4 3.87 µM | U-251 > 84.9 µM | OVCAR-4 > 87.5 µM

C=C1[C@H](OC(=O)C(C)C)[C@@H](OC(C)=O)[C@@H](OC(C)=O)C(C)(C)[C@@H]2O[C@H]2[C@@H](C)C(=O)[C@@]2(OC(C)=O)C[C@@](C)(OC(C)=O)[C@H](OC(C)=O)[C@@H]2[C@H]1OC(C)=O
inactive: SN12C > 100 µM | M14 > 100 µM | OVCAR-8 > 100 µM | BT-549 > 100 µM | COLO 205 > 100 µM | LOX IMVI > 100 µM | NCI-H460 > 100 µM | UACC-257 > 100 µM | A549 > 100 µM | PC-3 > 100 µM | MDA-N > 100 µM | A498 > 100 µM | ACHN > 100 µM | SNB-19 > 100 µM | RPMI-8226 > 100 µM | MOLT-4 > 100 µM | U-251 > 100 µM | OVCAR-4 > 100 µM | SF-268 > 100 µM

CSc1nc2ccccc2c(=O)n1/N=C1\C(=O)N(CN2CCOCC2)c2ccc(Cl)cc21
inactive: SN12C 48.2 µM | M14 26.5 µM | OVCAR-8 39.6 µM | BT-549 15.6 µM | COLO 205 17.1 µM | LOX IMVI 15.2 µM | NCI-H460 15.2 µM | UACC-257 19.8 µM | SK-MEL-28 56.2 µM | A549 35.4 µM | PC-3 29 µM | MDA-N 31.8 µM | A498 26.2 µM | ACHN 26.1 µM | SNB-19 46.8 µM | MOLT-4 10.9 µM | U-251 32.5 µM | OVCAR-4 33.8 µM | SF-268 36.9 µM

CC(C#N)Nc1ccc(Oc2ccc(C(C)(C)c3ccc(Oc4ccc(NC(C)C#N)cc4)cc3)cc2)cc1 (stereo unspecified)
inactive: SN12C > 100 µM | M14 > 100 µM | OVCAR-8 > 100 µM | BT-549 > 100 µM | COLO 205 > 100 µM | LOX IMVI > 100 µM | NCI-H460 > 100 µM | UACC-257 8.85 µM | SK-MEL-28 > 100 µM | A549 > 100 µM | PC-3 79.4 µM | MDA-N > 100 µM | A498 > 100 µM | ACHN > 100 µM | SNB-19 > 100 µM | MOLT-4 16.5 µM | U-251 > 100 µM | OVCAR-4 > 100 µM | SF-268 86.5 µM

Oc1c2cc(Br)cc1CCc1cc(Br)cc(c1O)CC2
inactive: SN12C 41.9 µM | M14 16.3 µM | OVCAR-8 28.8 µM | BT-549 22.6 µM | COLO 205 14.4 µM | LOX IMVI 16.2 µM | NCI-H460 18.5 µM | UACC-257 20.2 µM | SK-MEL-28 27 µM | A549 26.9 µM | PC-3 14.8 µM | MDA-N 30.1 µM | A498 31.8 µM | ACHN 23.7 µM | SNB-19 31 µM | RPMI-8226 17.2 µM | MOLT-4 18 µM | U-251 23.6 µM | SF-268 22.6 µM
